{"source": "patent US8778303B2", "about": "“99mTc-labeled 19 amino acid containing peptide for use as phosphatidylethanolamine binding molecular probe and radiopharmaceutical” (The Medical College of Wisconsin, Inc., priority 2008, dated 2014)", "key": {"[1]": {"system": "heart transplant rejection", "assay": "Imaging in rat model of heart transplant rejection", "type": "in vivo", "conditions": "days four and six post transplantation", "description": "In another experimental example, using a rat model of heart transplant rejection, rats were given heart allograft transplants, and other rats were given heart isograft transplants. Four and six days after heart tissue transplantation, the rats were injected with 99mTc-Duramycin and subsequently imaged."}, "[2]": {"assay": "Competition assay with phospholipid liposomes on apoptotic cells", "type": "binding", "conditions": "for binding to apoptotic cells in the presence of PtdE-containing liposomes: increasing concentration of PtdC/PtdE liposomes", "description": "Preparation of liposomes. Liposomes with the following chemical compositions were made: PtdC (100%), PtdC/PtdE (50/50, w/w), PtdC/PtdS (50/50, w/w), PtdC/PtdG (50/50, w/w). Solid phospholipids were weighed to contain 2 mg for each type of lipids in separate glass test tubes (10×140 mm). One ml of chloroform was used to completely dissolve the phospholipid in each tube. The chloroform was evaporated under a stream of nitrogen where the dried phospholipids formed a thin film of residue on the test tube wall. The samples were thoroughly dried under vacuum overnight. The next morning each sample was re-suspended in 2 ml of HEPES buffer (15 mM HEPES, 120 mM NaCl, pH 7.4) at 45° C. Each suspension was sonicated for 2-5 min at 15 sec each cycle until the mixture turned into an opaque appearance, which indicated the formation of multi-laminar liposomes. The samples were kept on ice until use.\nCompetition assay. The retention of the binding activity was determined using a competition assay in the presence of PtdE-containing liposomes. PtdC/PtdE liposomes was prepared as described herein. Binding assay was carried out in triplicate in the presence of increasing amount of PtdC/PtdE liposomes, from 1 nM to 10 μM final concentration in 4-fold increments. The radioactivity bound to the cell pellet was determined by gamma counting as described in the precious paragraph. The assay was repeated using liposomes containing other species of closely related phospholipids, including PtdC, PtdG, and PtdS."}, "[3]": {"biological_target": "rat serum albumin (Rattus norvegicus, UniProt P02770)", "sequence (P02770 25-608)": "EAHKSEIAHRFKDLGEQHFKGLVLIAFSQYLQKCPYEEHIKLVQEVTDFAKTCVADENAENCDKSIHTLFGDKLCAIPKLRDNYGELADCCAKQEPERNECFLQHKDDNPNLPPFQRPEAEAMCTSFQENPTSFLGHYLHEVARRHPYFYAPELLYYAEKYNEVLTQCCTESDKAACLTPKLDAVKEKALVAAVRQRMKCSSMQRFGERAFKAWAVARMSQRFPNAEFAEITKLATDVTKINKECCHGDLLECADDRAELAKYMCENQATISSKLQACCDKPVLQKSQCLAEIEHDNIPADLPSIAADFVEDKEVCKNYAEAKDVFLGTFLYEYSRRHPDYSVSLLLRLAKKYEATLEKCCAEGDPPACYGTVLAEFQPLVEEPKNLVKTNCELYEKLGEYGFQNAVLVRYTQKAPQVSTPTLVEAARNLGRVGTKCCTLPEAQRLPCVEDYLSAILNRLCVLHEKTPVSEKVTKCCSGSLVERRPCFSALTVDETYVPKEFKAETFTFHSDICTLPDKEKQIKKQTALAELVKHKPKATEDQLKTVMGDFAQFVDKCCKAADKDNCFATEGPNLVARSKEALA", "conditions": "RadioHPLC"}, "[4]": {"system": "area-at-risk", "assay": "Spatial and temporal uptake in the area-at-risk after myocardial ischemia and reperfusion", "type": "in vivo, rat"}, "[5]": {"system": "breast tumor", "assay": "Imaging in chemical-induced breast cancer model with doxorubicin treatment", "type": "in vivo, rat", "description": "In an experimental example using a chemical-induced breast cancer model in rats, breast tumors were allowed to grow to palpable size prior to doxorubicin treatment (see arrow, FIG. 9B)."}, "[6]": {"conditions": "dissected heart tissues, 60 min after injection"}}, "note": "Entries after “also recorded” stand apart in the source; their conditions may differ."}
{"smiles": "CC(C)=NNc1ccc(C(=O)NCCCC[C@@H]2NC(=O)[C@@H](N)CS[C@@H](C)[C@H]3NC(=O)[C@H](CC(N)=O)NC(=O)CNC(=O)[C@H]([C@@H](O)C(=O)O)NC(=O)[C@@H]4CSC[C@@H](NC(=O)[C@H](CCC(N)=O)NC2=O)C(=O)N[C@H]2CS[C@@H](C)[C@@H](NC(=O)[C@H](Cc5ccccc5)NC(=O)[C@@H]5CCCN5C(=O)CNC(=O)[C@H](Cc5ccccc5)NC(=O)[C@H](CNCCCC[C@@H](C(=O)O)NC3=O)NC2=O)C(=O)N[C@@H](Cc2ccccc2)C(=O)N[C@@H](C(C)C)C(=O)N4)cn1", "note": "[^99mTc-HYNIC-Duramycin, metal not drawn]", "values": [{"measurement": "uptake in heart allografts in contrast to isografts", "setting": "[1]", "value": "Markedly elevated"}, {"measurement": "binding to apoptotic cells in the presence of liposomes of other phospholipids", "setting": "[2]; PtdC, PtdG or PtdS liposomes", "value": "unable to competitively reduce"}, {"measurement": "binding to apoptotic cells in the presence of PtdE-containing liposomes", "setting": "[2]", "value": "competitively abolished; also recorded: exclusively and competitively diminished"}, {"measurement": "binding to apoptotic cells in the presence of PtdE-containing liposomes", "setting": "[2]; listed as 99mTc-HYNIC-Duramycin^1", "value": "not competitively diminished"}, {"measurement": "complex formation between the tracer and albumin", "setting": "[3]", "value": "did not result in any complex formation"}, {"measurement": "time uptake in infarct tissues remained persistent without significant washout", "setting": "[4]; after injection", "value": "at least 3 hours"}, {"measurement": "time to approach plateau of uptake", "setting": "[4]; area-at-risk, after injection", "value": "≤ 10", "unit": "min"}, {"measurement": "tracer uptake in the ischemic-non-infarct myocardium", "setting": "[4]; at 180 min", "value": "2.1±0.3", "unit": "% ID"}, {"measurement": "average infarct-to-normal ratio", "setting": "[4]; [6]", "value": 31.9}, {"measurement": "average ischemic-to-normal ratio", "setting": "[4]; [6]", "value": 11.1}, {"measurement": "tracer uptake in the ischemic-non-infarct myocardium", "setting": "[4]; minimum at 60 min", "value": "1.6±0.6", "unit": "% ID/g"}, {"measurement": "tracer uptake in the ischemic-non-infarct myocardium", "setting": "[4]; peak at around 10 min post-injection", "value": "2.7±0.6", "unit": "% ID/g"}, {"measurement": "radioactivity uptake in the infarcted myocardium", "setting": "[4]; plateau by 10 min after injection", "value": "4.3±0.7", "unit": "% ID/g"}, {"measurement": "level (plateau) of uptake in the area-at-risk", "setting": "[4]; rat myocardial ischemia and reperfusion", "value": "~4", "unit": "% ID/g"}, {"measurement": "presence of radioactivity in the infarcted tissue reduced (inactivated tracer)", "setting": "[4]; rat, in vivo", "value": "~60", "unit": "%"}, {"measurement": "time of maximum radioactivity in the infarcted tissue", "setting": "[4]; rat, in vivo", "value": "about 30 min"}, {"measurement": "radioactivity uptake in the normal myocardium", "setting": "[4]; reflecting residual blood pool signal", "value": "low"}, {"measurement": "radioactivity uptake in the infarcted myocardium", "setting": "[4]; within 3 min after injection", "value": "1.8±0.4", "unit": "% ID/g"}, {"measurement": "uptake in treated breast tumor", "setting": "[5]; after a single cycle of doxorubicin", "value": "elevated"}, {"measurement": "cardiac uptake after doxorubicin", "setting": "[5]; rat, in vivo", "value": "also elevated"}]}
